Assay results: PubChem BioAssay (NCI)
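The compound was tested at five concentrations on cells cultured in 96-well plates, with a 48-hour exposure period. TGI is the concentration that stops growth completely.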

Experiments:
Assay in all cases: NCI tumour cell line growth inhibition, 48 h
HCT-15 colon = tested on: HCT-15 colon
HL-60(TB) leukemia = tested on: HL-60(TB) leukemia
HS 578T breast = tested on: HS 578T breast
M14 melanoma = tested on: M14 melanoma
MDA-MB-435 = tested on: MDA-MB-435
OVCAR-3 ovarian = tested on: OVCAR-3 ovarian
OVCAR-4 ovarian = tested on: OVCAR-4 ovarian
OVCAR-5 ovarian = tested on: OVCAR-5 ovarian
OVCAR-8 ovarian = tested on: OVCAR-8 ovarian
SF-268 CNS = tested on: SF-268 CNS
SF-295 CNS = tested on: SF-295 CNS
SF-539 CNS = tested on: SF-539 CNS
TK-10 renal = tested on: TK-10 renal
U251 CNS = tested on: U251 CNS

SMILES | TGI (HCT-15 colon) [µM] | TGI (HL-60(TB) leukemia) [µM] | TGI (HS 578T breast) [µM] | TGI (M14 melanoma) [µM] | TGI (MDA-MB-435) [µM] | TGI (OVCAR-3 ovarian) [µM] | TGI (OVCAR-4 ovarian) [µM] | TGI (OVCAR-5 ovarian) [µM] | TGI (OVCAR-8 ovarian) [µM] | TGI (SF-268 CNS) [µM] | TGI (SF-295 CNS) [µM] | TGI (SF-539 CNS) [µM] | TGI (TK-10 renal) [µM] | TGI (U251 CNS) [µM]
C/C(=N/NC(=S)Nc1cccc(Cl)c1)c1ccccn1 | 16.1 | 0.5 | 10.1 | 3.82 | 15.4 | 12.3 | 16.9 | 3.46 | 9.29 | 12.5 | 9.39 | 3.35 | 10.4 | 8.26
CSc1c2c(C)n[nH]c2nn1-c1ccccc1 | > 100 | 93.6 | > 100 | > 100 | > 100 | > 100 | > 100 | > 100 | > 100 | > 100 | – | > 100 | > 100 | > 100
Oc1cc(Cl)cc2cc(Cl)cnc12 | 27.3 | 0.902 | > 100 | > 100 | > 100 | 5.43 | > 100 | > 100 | > 100 | > 100 | 88.7 | > 100 | 76.2 | > 100
N#C/C(=C/n1c(=S)[nH]c2ccccc21)C(N)=O | > 100 | 30.4 | > 100 | > 100 | > 100 | > 100 | > 100 | > 100 | > 100 | > 100 | > 100 | > 100 | – | > 100
CC(C)(C)c1cc(C(=O)C2Cc3ccccc3C(=O)O2)cc(C(C)(C)C)c1O (stereo not drawn) | 37 | 35 | > 100 | 25.6 | 32.6 | 25.5 | 65.7 | 31.8 | 33.3 | 40.6 | 35.1 | 31.7 | 28.6 | 22.2
N#C/C=c1/c2ccccc2n2nc3ccccc3c12 | > 100 | > 100 | > 100 | > 100 | > 100 | > 100 | 31.5 | > 100 | > 100 | 34 | > 100 | 37.6 | 30.5 | 30.9
O=C(CNc1nccs1)Nn1cnc2ccc(S(=O)(=O)Nc3nccs3)cc2c1=O | > 100 | > 100 | > 100 | > 100 | > 100 | > 100 | > 100 | > 100 | > 100 | > 100 | > 100 | > 100 | > 100 | > 100
CCn1c(-c2ccc(OC)cc2)nc2c1C(=O)c1ccccc1C2=O | > 100 | > 100 | > 100 | > 100 | > 100 | > 100 | > 100 | > 100 | > 100 | > 100 | > 100 | > 100 | > 100 | > 100
COC1=CC(=O)c2c(cc(COP(N)(=O)N(CCCl)CCCl)n2C)C1=O (stereo not drawn) | 3.54 | 3.89 | > 100 | 2.74 | 3.2 | 2.37 | 16.3 | 4.21 | 3.2 | 2.34 | 2.82 | 2.19 | 5.61 | 6.77
Oc1cc(O)c2c(c1)O[C@H](c1cc(O)c(O)c(O)c1)[C@@H](O)C2 | > 100 | 45.4 | > 100 | 57.6 | 38.1 | 46.6 | 48.7 | 34.8 | 31.1 | 58.7 | 73.2 | 40.7 | – | 34.5
C/C(=N/NC(=S)N(C)C)c1ccccc1O | > 100 | > 51.9 | > 100 | 23.4 | > 100 | > 26.3 | > 85 | > 100 | > 74.4 | > 38.2 | > 100 | 50.3 | > 100 | > 100
CC(=O)NNC(=S)/N=C\c1c(O)c2ccccc2oc1=O | > 100 | > 100 | > 100 | > 100 | > 100 | > 100 | > 100 | > 100 | > 100 | > 100 | > 100 | > 100 | > 100 | > 100
COc1ccc(OC)c(NC2=NCCO2)c1 | > 100 | > 100 | > 100 | > 100 | > 100 | > 100 | > 100 | > 100 | > 100 | > 100 | > 100 | > 100 | > 100 | > 100
O=C(OCC1CCCN2CCCCC12)c1cccnc1 (stereo not drawn) | > 100 | > 100 | > 100 | – | > 100 | – | > 100 | – | > 100 | > 100 | > 100 | > 100 | > 100 | > 100
COC(=O)c1ccccc1NC(=S)NN(C)C | > 100 | > 100 | > 100 | > 100 | > 100 | > 100 | > 100 | > 100 | > 100 | – | > 100 | > 100 | > 100 | > 100
C[C@]12C(=O)C=CCC1=CC[C@@H]1[C@@H]2[C@H]2CC3(O)C(=O)O[C@@]4(C)[C@H]5C[C@@]6(C)[C@@H]7[C@@]2(O)[C@]1(OC[C@H]6C(=O)O5)O[C@]734 (stereo partly drawn) | > 100 | > 100 | > 100 | > 100 | > 100 | – | > 100 | > 100 | > 100 | > 100 | > 100 | 42.9 | > 100 | > 100
Cc1nc2ccccc2c(=O)n1NC(=O)c1ccccc1[N+](=O)[O-] | > 100 | > 100 | > 100 | > 100 | > 100 | > 100 | > 100 | > 100 | – | > 100 | > 100 | > 100 | > 100 | > 100

SMILES | TGI (HCT-15 colon) [µM] | TGI (HL-60(TB) leukemia) [µM] | TGI (HS 578T breast) [µM] | TGI (M14 melanoma) [µM] | TGI (MDA-MB-435) [µM] | TGI (OVCAR-3 ovarian) [µM] | TGI (OVCAR-4 ovarian) [µM] | TGI (OVCAR-5 ovarian) [µM] | TGI (OVCAR-8 ovarian) [µM] | TGI (SF-268 CNS) [µM] | TGI (SF-295 CNS) [µM] | TGI (SF-539 CNS) [µM] | TGI (TK-10 renal) [µM] | TGI (U251 CNS) [µM]
CC(C(=O)NCCNC(=O)CCC(=O)N(C)O)C(=O)NCCNC(=O)CCC(=O)N(C)O | > 100 | > 100 | > 100 | > 100 | > 100 | > 100 | > 100 | > 100 | > 100 | > 100 | > 100 | – | > 100 | > 100
O=C1C(C(c2ccc([N+](=O)[O-])cc2)N2CCOCC2)=C(O)C(c2ccccc2)N1c1ccccc1 (stereo not drawn) | > 10 | > 10 | > 10 | > 10 | > 10 | > 10 | > 10 | > 10 | > 10 | > 10 | > 10 | > 10 | > 10 | > 10
COC(=O)[C@H]1[C@@H](O)[C@@]2(O)c3c(OC)cc(OC)cc3O[C@@]2(c2ccc3c(c2)OCO3)[C@@H]1c1ccccc1 | 0.107 | 0.763 | 2.13 | 0.0414 | > 50 | 2.8 | > 10.1 | 0.206 | > 50 | 2.11 | 0.143 | 0.0279 | – | > 50
Cc1ccc(S(=O)(=O)NC(=O)NCCc2ccc(O)c(O)c2)cc1 | > 100 | > 100 | > 100 | > 100 | > 100 | > 100 | > 100 | > 100 | > 100 | > 100 | > 100 | > 100 | > 100 | > 100
COc1ccc(N2CN(C)CSC2=S)cc1 | > 100 | > 100 | > 100 | > 100 | > 100 | 24.4 | > 100 | > 100 | > 100 | > 100 | 86.2 | > 100 | > 100 | > 100
COc1cc(OCc2nc3cc(C(F)(F)F)ccc3nc2-c2ccccc2)cc(OC)c1OC | > 100 | > 100 | > 100 | > 100 | > 100 | > 100 | > 100 | > 100 | > 100 | > 100 | > 100 | > 100 | > 100 | > 100
CC(C)NCC(O)c1ccc(O)c2ncccc12 (stereo not drawn) | > 100 | > 100 | > 100 | > 100 | > 100 | 55 | > 100 | > 100 | > 100 | > 100 | > 100 | > 100 | > 100 | > 100
N/C(=N\NC(=O)c1nc2ccccc2s1)c1ccccn1 | 31.9 | 23.4 | > 100 | 23.6 | > 37.6 | > 100 | – | 65.7 | > 47.2 | > 100 | > 100 | 15.6 | > 100 | > 60.9
Nc1nc2c(c(-c3ccccc3Cl)n1)COC/C2=C\c1ccccc1Cl | 39.9 | 25.5 | 51 | 29.6 | 24.7 | 31.2 | 39 | 31.7 | 30.8 | 34.3 | 27.7 | 34.4 | 31.9 | 31.6
CC1(C)Oc2ccc3c(=O)cc(-c4cccs4)oc3c2C1C(=O)O (stereo not drawn) | – | > 100 | > 100 | > 100 | > 100 | > 100 | – | > 100 | > 100 | > 100 | > 100 | > 100 | > 100 | > 100
COc1cc(S(=O)(=O)Nc2ccc(-c3csc(N4C(=O)C(Cl)C4c4cccc(Oc5ccccc5)c4)n3)cc2)ccc1Cl (stereo not drawn) | > 100 | 41.7 | > 100 | 52.4 | 39.7 | > 100 | 18.1 | > 100 | > 100 | 28.3 | > 100 | 29.6 | – | –
Nc1nc(Nc2ccc(Cl)cc2)sc1C(=O)c1c[nH]c2ccccc12 | 15.2 | 82.8 | 71.3 | 23.5 | 47.5 | 36 | 51.7 | 46.2 | – | 60 | – | 31.6 | 31.8 | 25.1
NC(=S)Nc1ccc2c(c1)oc1ccccc12 | > 100 | > 100 | > 100 | > 100 | > 100 | > 100 | > 100 | > 100 | > 100 | > 100 | > 100 | – | > 100 | > 100
O=S(c1ccccc1)C1CC2CC3(CCC21O)OCCO3 (stereo not drawn) | > 100 | > 100 | > 100 | > 100 | > 100 | > 100 | > 100 | > 100 | > 100 | > 100 | > 100 | – | > 100 | > 100
Cn1c(=O)c2c(nc3n2CCC(=O)N3CCCCl)n(C)c1=O | > 100 | > 100 | > 100 | > 100 | > 100 | > 100 | > 100 | > 100 | > 100 | > 100 | > 100 | – | > 100 | > 100
Cc1ccc2n(c1)cc(-c1ccc(/C=N/NC(=N)N/N=C/c3ccc(-c4cn5cc(C)ccc5[n+]4C)cc3)cc1)[n+]2C | > 100 | > 100 | > 100 | > 100 | > 100 | – | > 100 | > 100 | > 100 | 43.8 | > 100 | > 100 | > 100 | > 100
c1ccc2[nH]c3c(N=NC4=NCCN4)c4ccccc4c-3nc2c1 | 15.8 | > 100 | > 100 | 20.4 | 21.8 | 30.2 | > 100 | – | 9.39 | > 100 | 12.2 | 20.2 | 66.6 | 19.7
